# From the supplement of paper PMC10307832
# What was measured:
# Assay in all cases: relative viability (nuclei count vs DMSO), 5 days (fraction); higher = more cells survive
# TGX 221 + Dasatinib = compound: CC1=CN2C(=O)C=C(N=C2C(=C1)C(C)NC3=CC=CC=C3)N4CCOCC4 [TGX 221] + Cc1nc(Nc2ncc(C(=O)Nc3c(C)cccc3Cl)s2)cc(N2CCN(CCO)CC2)n1 [Dasatinib] (partner 0.075 µM)
# Method in brief: (§1)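 A single step with final 0.05% Triton X-100, 1% formaldehyde and 1 ug/ml Hoechst fixed the cells and stained nuclei 5 days after treatment. Lung cancer cell lines in 1536-well plates had been treated by pin tool the day after seeding with one drug alone or a fixed anchor-drug dose plus five library-drug doses (not always all listed) in √10 steps, and nuclei were counted on 4× images. Relative viability is the ratio of nuclei in treated wells to nuclei in vehicle wells, taken as the median of duplicate plates.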
# [1] = compound: C1=CC=C(C(=C1)C2=CC=C(C=C2)C3=CSC4=C3C(=C(C(=O)N4)C#N)O)O + C[C@]1(O)C[C@@H](c2nc(-c3ccc4ccc(-c5ccccc5)nc4c3)c3c(N)nccn32)C1 [Linsitinib] (partner 1 µM)
# Method in brief: as §1
# TGX 221 + Alpelisib = compound: CC1=CN2C(=O)C=C(N=C2C(=C1)C(C)NC3=CC=CC=C3)N4CCOCC4 [TGX 221] + Cc1nc(NC(=O)N2CCC[C@H]2C(N)=O)sc1-c1ccnc(C(C)(C)C(F)(F)F)c1 [Alpelisib] (partner 2 µM)
# Method in brief: as §1
# [2] = compound: C1=CC=C(C(=C1)C2=CC=C(C=C2)C3=CSC4=C3C(=C(C(=O)N4)C#N)O)O + O=C(c1cc(Cc2n[nH]c(=O)c3ccccc23)ccc1F)N1CCN(C(=O)C2CC2)CC1 [Olaparib] (partner 8 µM)
# Method in brief: as §1
Cell Line,relative viability (TGX 221 + Dasatinib; first compound 0.08 µM),relative viability (TGX 221 + Dasatinib; first compound 0.253 µM),relative viability (TGX 221 + Dasatinib; first compound 0.8 µM),relative viability (TGX 221 + Dasatinib; first compound 2.53 µM),relative viability (TGX 221 + Dasatinib; first compound 8 µM),relative viability ([1]; first compound 0.08 µM),relative viability ([1]; first compound 0.253 µM),relative viability ([1]; first compound 0.8 µM),relative viability ([1]; first compound 2.53 µM),relative viability ([1]; first compound 8 µM),relative viability (TGX 221 + Alpelisib; first compound 0.253 µM),relative viability (TGX 221 + Alpelisib; first compound 0.8 µM),relative viability (TGX 221 + Alpelisib; first compound 2.53 µM),relative viability (TGX 221 + Alpelisib; first compound 8 µM),relative viability ([2]; first compound 0.08 µM),relative viability ([2]; first compound 0.253 µM),relative viability ([2]; first compound 0.8 µM),relative viability ([2]; first compound 2.53 µM),relative viability ([2]; first compound 8 µM),relative viability (TGX 221 + Alpelisib; first compound 0.08 µM)
201T,0.596,0.584,0.54,0.508,0.541,1.09,1.06,1.03,1.02,1.1,0.942,0.943,0.872,0.827,0.652,0.812,0.828,0.74,0.885,
A549,,,,,,0.635,0.606,0.509,0.521,0.393,0.52,0.542,0.377,0.28,0.275,0.208,0.314,0.375,0.379,0.63
A-427,0.696,0.735,0.671,0.657,0.692,1.09,1.12,1.11,1.15,1.18,1.11,1.14,0.976,1.08,0.781,0.71,0.849,0.712,0.793,1.04
ABC-1,0.531,0.569,0.682,0.472,0.577,0.926,0.906,0.856,0.875,0.735,0.858,0.996,0.99,0.838,0.856,1.22,1.06,0.701,0.829,1.03
BEN,0.385,0.266,0.317,0.328,0.293,0.609,0.999,0.93,1.21,0.822,0.942,0.899,0.899,0.88,0.987,1.38,1.03,1.19,0.971,0.982
CAL-12T,0.365,0.34,0.383,0.31,0.373,0.636,1.12,0.762,0.907,0.787,1.1,1.21,0.852,0.64,0.724,0.834,0.824,0.856,0.651,1.17
COR-L23,0.483,0.457,0.538,0.488,0.431,0.703,0.816,1.02,0.99,0.747,0.659,0.759,0.722,0.742,0.318,0.343,0.32,0.365,0.322,0.807
COR-L 105,0.286,0.252,0.264,0.406,0.23,0.964,0.781,0.924,0.957,0.953,0.838,0.697,0.609,0.361,0.695,0.793,1.03,0.688,0.859,1.02
Calu-6,,,,,,0.95,1.1,1.06,1.01,0.786,0.8,0.948,0.917,0.883,0.721,0.595,0.643,0.63,0.615,0.986
ChaGo-K-1,0.548,0.536,0.615,0.494,0.575,,,,,,,,,,0.388,0.443,0.396,0.439,0.45,
EBC-1,,,,,,0.784,1.16,0.642,0.925,0.781,0.526,0.426,0.321,0.32,0.741,0.701,0.664,0.719,0.587,0.738
EKVX,0.399,0.523,0.432,0.493,0.365,0.751,1.28,0.883,1.1,0.779,0.716,0.648,0.5,0.477,0.98,0.929,0.778,0.856,0.716,0.77
EMC-BAC-2,0.279,0.306,0.321,0.315,0.351,0.759,0.853,0.837,0.811,0.77,0.597,0.679,0.623,0.629,0.48,0.58,0.438,0.484,0.496,0.735
EPLC-272H,0.392,0.29,0.351,0.302,0.287,,1.46,1.23,1.24,0.888,0.828,0.799,,0.62,0.665,0.753,0.856,0.917,0.509,0.877
H3255,0.257,0.417,0.355,0.307,0.342,0.912,1.06,0.854,0.967,0.78,0.581,0.534,0.448,0.378,0.612,0.67,0.524,0.624,0.574,0.568
